The values that follow are results of earlier work, collected in article PMC6471197, “Biological Activity and In Silico Study of 3-Modified Derivatives of Betulin and Betulinic Aldehyde” (International Journal of Molecular Sciences, 2019).

Data set [1] has as its system MCF-7/ADR cells (multidrug-resistant breast cancer). Also on record: method as in PMID 25817774. The conditions noted are these: read-out: IC50 towards MCF-7/ADR cells; cited from earlier work.
Data set [2] deals with lung A549 cell line. Also noted: method as in PMID 20460723. The conditions noted are these: cited from earlier work.
On the set-up of data set [3]: method as in PMID 17851638. As to conditions: cited from earlier work.
The subject of data set [4] is PC-3, Jurkat, HeLa, HepG2 and HT-29. Also on record: method as in PMID 20494586. The conditions noted are these: range over PC-3, Jurkat, HepG2, HT-29, read-out: IC50 in the tested cancer cell lines; cited from earlier work.

Values after ≈ are worked out from the molar mass of the structure shown.

On to `C=C(C)[C@@H]1CC[C@]2(C(=O)O)CC[C@]3(C)[C@H](CC[C@@H]4[C@@]5(C)CC[C@H](O)C(C)(C)[C@@H]5CC[C@]43C)[C@@H]12` [betulinic acid], for which the IC50 in data set [1] is 38.5 µM; in data set [4] it was 12.8 to 36.4 µM. The “IC50 against lung A549 cell line” value in data set [2] is reported as 8.4 µg/mL (≈ 18.4 µM). For the same compound, the water solubility in data set [3] is less than 1 µM.
